# Test results reported in ChEMBL document CHEMBL1201862, “PubChem BioAssay data set” (2004).
#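 Briefly, cells in 96-well plates were exposed to five compound concentrations for 48 h, and endpoints were estimated by linear interpolation. The concentration for 50% growth inhibition is given as GI50.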 The source made the active and inactive calls. Cut-off read from the data, not from the text of the source: active = GI50 up to about 1.1 µM and inactive = higher.
# Key:
# Assay in all cases: DTP human tumour cell line panel, 48 h
# [1] = test system: HL-60
# [2] = test system: IGROV-1
# [3] = test system: TK-10
# [4] = test system: CAKI-1
# [5] = test system: HOP-62
# [6] = test system: NCI-H23
# [7] = test system: COLO 205
# [8] = test system: A549
# [9] = test system: NCI-H226
# [10] = test system: 786-0
# [11] = test system: PC-3
# [12] = test system: RPMI-8226
# [13] = test system: T47D
# [14] = test system: NCI-H522
# [15] = test system: MDA-N
# [16] = test system: SW-620
# [17] = test system: SF-268
# [18] = test system: SK-MEL-28
# [19] = test system: SF-295
# [20] = test system: K562
Structure (SMILES),GI50 [1],GI50 [2],GI50 [3],GI50 [4],GI50 [5],GI50 [6],GI50 [7],GI50 [8],GI50 [9],GI50 [10],GI50 [11],GI50 [12],GI50 [13],GI50 [14],GI50 [15],GI50 [16],GI50 [17],GI50 [18],GI50 [19],GI50 [20]
CCCCSC1=N/C(=C\c2ccco2)C(=O)N1,18.2 µM (inactive),36.6 µM (inactive),59.6 µM (inactive),74.5 µM (inactive),> 100 µM (inactive),36.3 µM (inactive),26.1 µM (inactive),43.6 µM (inactive),51.5 µM (inactive),87.3 µM (inactive),46.1 µM (inactive),34.1 µM (inactive),16.5 µM (inactive),28.9 µM (inactive),42.4 µM (inactive),35.8 µM (inactive),41.3 µM (inactive),42.5 µM (inactive),45.5 µM (inactive),–
CCC(c1ccccc1)c1cc(C(C)(C)C)cc(C(C)(C)C)c1O (stereo not drawn),–,17 µM (inactive),15.5 µM (inactive),16.2 µM (inactive),16.2 µM (inactive),17.2 µM (inactive),18.7 µM (inactive),16.3 µM (inactive),18.9 µM (inactive),15.6 µM (inactive),17.7 µM (inactive),13.6 µM (inactive),16.1 µM (inactive),13.7 µM (inactive),17.1 µM (inactive),16.5 µM (inactive),15.3 µM (inactive),18.3 µM (inactive),13.9 µM (inactive),16.7 µM (inactive)
CC1(C)CNC(c2ccc3c(c2)Cc2cc(C4=NC(C)(C)CN4)ccc2-3)=N1,–,> 100 µM (inactive),> 100 µM (inactive),> 100 µM (inactive),33.5 µM (inactive),35.1 µM (inactive),28.2 µM (inactive),> 100 µM (inactive),49.4 µM (inactive),49.8 µM (inactive),39.8 µM (inactive),25.2 µM (inactive),61.2 µM (inactive),29.9 µM (inactive),39.8 µM (inactive),34.5 µM (inactive),34.6 µM (inactive),38.7 µM (inactive),> 100 µM (inactive),24.4 µM (inactive)
CCNC1=C(NC(=O)CC)C(=O)c2ccccc2C1=O,74.8 µM (inactive),> 100 µM (inactive),> 100 µM (inactive),–,> 100 µM (inactive),70.8 µM (inactive),46.5 µM (inactive),> 100 µM (inactive),> 100 µM (inactive),> 100 µM (inactive),42.6 µM (inactive),> 100 µM (inactive),> 100 µM (inactive),46.1 µM (inactive),> 100 µM (inactive),60.4 µM (inactive),> 100 µM (inactive),> 100 µM (inactive),> 100 µM (inactive),> 100 µM (inactive)
COC1(CCO)CC=CCC1(CCO)OC (stereo not drawn),> 100 µM (inactive),> 100 µM (inactive),> 100 µM (inactive),> 100 µM (inactive),> 100 µM (inactive),–,> 100 µM (inactive),> 100 µM (inactive),> 100 µM (inactive),> 100 µM (inactive),> 100 µM (inactive),> 100 µM (inactive),> 100 µM (inactive),> 100 µM (inactive),> 100 µM (inactive),> 100 µM (inactive),> 100 µM (inactive),> 100 µM (inactive),> 100 µM (inactive),> 100 µM (inactive)
CC(=O)N(C(=O)CC(=O)N/N=C\c1ccc(Br)c(N(CCC#N)CCC#N)c1)c1ccc(Cl)cc1,35.4 µM (inactive),21.4 µM (inactive),27.8 µM (inactive),44.7 µM (inactive),44.7 µM (inactive),86.1 µM (inactive),69.8 µM (inactive),27.4 µM (inactive),36.1 µM (inactive),45.9 µM (inactive),96.6 µM (inactive),81.8 µM (inactive),43.3 µM (inactive),–,41.3 µM (inactive),93.3 µM (inactive),> 100 µM (inactive),> 100 µM (inactive),22.7 µM (inactive),60 µM (inactive)
O/N=N\c1nc(-c2ccccn2)nc2ccccc12,0.984 µM (active),17 µM (inactive),17.4 µM (inactive),2.12 µM (inactive),1.98 µM (inactive),35.2 µM (inactive),6.15 µM (inactive),45.3 µM (inactive),12.7 µM (inactive),3.68 µM (inactive),11.7 µM (inactive),–,2.83 µM (inactive),1.89 µM (inactive),19.6 µM (inactive),5.35 µM (inactive),11.7 µM (inactive),16 µM (inactive),22 µM (inactive),2.23 µM (inactive)
